Measurements taken from the supplement of paper PMC10307832.

What was measured:
Test in all cases: relative viability (nuclei count vs DMSO), 5 days (fraction); higher = more cells survive
PC-14 = system: PC-14
Procedure, shortened: (§1)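 The day after seeding in 1536-well plates, lung cancer cell lines were treated by pin tool with a single drug, or with a fixed anchor-drug dose together with five library-drug doses (not always all listed) in √10 steps. After 5 days, a combined fix-and-stain solution (final 0.05% Triton X-100, 1% formaldehyde, 1 ug/ml Hoechst) was added. Nuclei counted on 4× images gave relative viability as treated counts over vehicle counts, reported as the median of duplicate plates.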

NCI-H1915 = system: NCI-H1915
Procedure, shortened: as §1

NCI-H1355 = system: NCI-H1355
Procedure, shortened: as §1

NCI-H1651 = system: NCI-H1651
Procedure, shortened: as §1

EPLC-272H = system: EPLC-272H
Procedure, shortened: as §1

NCI-H2347 = system: NCI-H2347
Procedure, shortened: as §1

LU99A = system: LU99A
Procedure, shortened: as §1

HARA = system: HARA
Procedure, shortened: as §1

NCI-H838 = system: NCI-H838
Procedure, shortened: as §1

NCI-H358 = system: NCI-H358
Procedure, shortened: as §1

NCI-H2342 = system: NCI-H2342
Procedure, shortened: as §1

ABC-1 = system: ABC-1
Procedure, shortened: as §1

HCC-15 = system: HCC-15
Procedure, shortened: as §1

LC-2-ad = system: LC-2-ad
Procedure, shortened: as §1

NCI-H650 = system: NCI-H650
Procedure, shortened: as §1

NCI-H1993 = system: NCI-H1993
Procedure, shortened: as §1

NCI-H2085 = system: NCI-H2085
Procedure, shortened: as §1

NCI-H2126 = system: NCI-H2126
Procedure, shortened: as §1

HCC-78 = system: HCC-78
Procedure, shortened: as §1

For `O=C(O)c1ccc(-c2c[nH]c3ncc(-c4ccccc4)cc23)cc1C1CCCC1` + NC(=O)Nc1cc(-c2cccc(F)c2)sc1C(=O)N[C@H]1CCCNC1 [AZD7762] (partner 0.2 µM), the relative viability (PC-14; first compound 0.04 µM) was 0.335, the relative viability (PC-14; first compound 0.1265 µM) was 0.414 and the relative viability (PC-14; first compound 0.4 µM) was 0.407. It also gave a relative viability (PC-14; first compound 1.265 µM) of 0.39, a relative viability (NCI-H1915; first compound 0.04 µM) of 0.681 and a relative viability (NCI-H1915; first compound 0.1265 µM) of 0.64. It also gave a relative viability (NCI-H1915; first compound 0.4 µM) of 0.77, a relative viability (NCI-H1915; first compound 1.265 µM) of 0.764 and a relative viability (NCI-H1355; first compound 0.04 µM) of 0.729. The relative viability (NCI-H1355; first compound 0.1265 µM) was 0.912, the relative viability (NCI-H1355; first compound 0.4 µM) was 0.856 and the relative viability (NCI-H1355; first compound 1.265 µM) was 0.703. It also gave a relative viability (NCI-H1651; first compound 0.04 µM) of 0.326, a relative viability (NCI-H1651; first compound 0.1265 µM) of 0.56 and a relative viability (NCI-H1651; first compound 0.4 µM) of 0.551. The relative viability (NCI-H1651; first compound 1.265 µM) was 0.426, the relative viability (EPLC-272H; first compound 0.04 µM) was 0.246 and the relative viability (EPLC-272H; first compound 0.1265 µM) was 0.32. It also gave a relative viability (EPLC-272H; first compound 0.4 µM) of 0.21, a relative viability (EPLC-272H; first compound 1.265 µM) of 0.246 and a relative viability (NCI-H2347; first compound 0.04 µM) of 0.821. It also gave a relative viability (NCI-H2347; first compound 0.1265 µM) of 0.935, a relative viability (NCI-H2347; first compound 0.4 µM) of 0.797 and a relative viability (NCI-H2347; first compound 1.265 µM) of 0.878. It also gave a relative viability (LU99A; first compound 0.04 µM) of 0.486, a relative viability (LU99A; first compound 0.1265 µM) of 0.522 and a relative viability (LU99A; first compound 0.4 µM) of 0.421. For the same compound, the relative viability (LU99A; first compound 1.265 µM) was 0.411, the relative viability (HARA; first compound 0.04 µM) was 0.4 and the relative viability (HARA; first compound 0.1265 µM) was 0.596. For the same compound, the relative viability (HARA; first compound 0.4 µM) was 0.385, the relative viability (HARA; first compound 1.265 µM) was 0.554 and the relative viability (NCI-H838; first compound 0.04 µM) was 0.978. For the same compound, the relative viability (NCI-H838; first compound 0.1265 µM) was 1.07, the relative viability (NCI-H838; first compound 0.4 µM) was 0.992 and the relative viability (NCI-H838; first compound 1.265 µM) was 0.92. It also gave a relative viability (NCI-H358; first compound 0.04 µM) of 0.494, a relative viability (NCI-H358; first compound 0.1265 µM) of 0.536 and a relative viability (NCI-H358; first compound 0.4 µM) of 0.456. The relative viability (NCI-H358; first compound 1.265 µM) was 0.452, the relative viability (NCI-H2342; first compound 0.04 µM) was 0.41 and the relative viability (NCI-H2342; first compound 0.1265 µM) was 0.467. The relative viability (NCI-H2342; first compound 0.4 µM) was 0.535, the relative viability (NCI-H2342; first compound 1.265 µM) was 0.459 and the relative viability (ABC-1; first compound 0.04 µM) was 0.726. For the same compound, the relative viability (ABC-1; first compound 0.1265 µM) was 0.965, the relative viability (ABC-1; first compound 0.4 µM) was 0.89 and the relative viability (ABC-1; first compound 1.265 µM) was 0.837. It also gave a relative viability (HCC-15; first compound 0.04 µM) of 1.22, a relative viability (HCC-15; first compound 0.1265 µM) of 1.45 and a relative viability (HCC-15; first compound 0.4 µM) of 1.42. It also gave a relative viability (HCC-15; first compound 1.265 µM) of 1.03, a relative viability (LC-2-ad; first compound 0.04 µM) of 0.853 and a relative viability (LC-2-ad; first compound 0.1265 µM) of 0.926. It also gave a relative viability (LC-2-ad; first compound 0.4 µM) of 0.835, a relative viability (LC-2-ad; first compound 1.265 µM) of 0.812 and a relative viability (NCI-H650; first compound 0.04 µM) of 1.03. It also gave a relative viability (NCI-H650; first compound 0.1265 µM) of 1.11, a relative viability (NCI-H650; first compound 0.4 µM) of 1.02 and a relative viability (NCI-H650; first compound 1.265 µM) of 0.947. It also gave a relative viability (NCI-H1993; first compound 0.04 µM) of 0.776, a relative viability (NCI-H1993; first compound 0.1265 µM) of 0.814 and a relative viability (NCI-H1993; first compound 0.4 µM) of 0.832. For the same compound, the relative viability (NCI-H1993; first compound 1.265 µM) was 0.615, the relative viability (NCI-H2085; first compound 0.04 µM) was 0.944 and the relative viability (NCI-H2085; first compound 0.1265 µM) was 1.09. The relative viability (NCI-H2085; first compound 0.4 µM) was 1.03, the relative viability (NCI-H2085; first compound 1.265 µM) was 0.871 and the relative viability (NCI-H2126; first compound 0.04 µM) was 1.02. It also gave a relative viability (NCI-H2126; first compound 0.1265 µM) of 1.11, a relative viability (NCI-H2126; first compound 0.4 µM) of 1.08 and a relative viability (NCI-H2126; first compound 1.265 µM) of 1. For the same compound, the relative viability (HCC-78; first compound 0.1265 µM) was 0.734, the relative viability (HCC-78; first compound 0.4 µM) was 0.779 and the relative viability (HCC-78; first compound 1.265 µM) was 0.712.
